# Experimental data: patent US20070185197A1, “Phenol derivative, medicinal composition containing the same, and medicinal use thereof” (priority 2004, published 2007)
# Target: T1, human SGLT2 (Homo sapiens, UniProt P31639)
# T1 construct: expressed in transfected cells
# T1 sequence (P31639 1-672): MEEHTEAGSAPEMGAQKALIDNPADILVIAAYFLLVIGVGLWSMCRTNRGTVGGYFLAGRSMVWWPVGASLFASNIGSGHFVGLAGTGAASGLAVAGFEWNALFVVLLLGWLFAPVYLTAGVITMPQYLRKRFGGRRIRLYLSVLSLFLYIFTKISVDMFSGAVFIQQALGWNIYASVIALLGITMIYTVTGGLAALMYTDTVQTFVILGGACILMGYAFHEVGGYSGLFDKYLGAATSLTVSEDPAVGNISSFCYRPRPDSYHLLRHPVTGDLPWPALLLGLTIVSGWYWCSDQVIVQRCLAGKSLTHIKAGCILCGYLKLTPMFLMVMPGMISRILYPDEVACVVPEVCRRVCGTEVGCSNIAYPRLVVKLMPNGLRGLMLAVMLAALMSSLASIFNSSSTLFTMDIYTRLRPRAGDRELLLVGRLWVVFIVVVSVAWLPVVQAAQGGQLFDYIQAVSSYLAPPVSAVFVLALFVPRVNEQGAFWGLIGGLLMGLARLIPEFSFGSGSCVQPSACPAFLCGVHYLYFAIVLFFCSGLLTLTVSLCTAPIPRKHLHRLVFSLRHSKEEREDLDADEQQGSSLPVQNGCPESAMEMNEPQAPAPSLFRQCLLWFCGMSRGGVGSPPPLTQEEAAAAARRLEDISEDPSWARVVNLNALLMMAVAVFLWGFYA
# Test: Assay for inhibitory effects on human SGLT2 activity (uptake of methyl-α-D-glucopyranoside in CS2-5E cells)
# Type: cell-based
# Details: inhibition of 14C-labeled α-MG uptake (1 mM), CHO-K1 cells stably expressing human SGLT2 (CS2-5E), 37° C., 1 hour
# Method: Assay for Inhibitory Effects on Human SGLT2 Activity 1) Cloning and Construction of the Vector Expressing Human SGLT2 The cDNA library was prepared for PCR amplification by reverse transcription from total RNA deprived from human kidney (Ori gene) using oligo-dT as a primer. Using this cDNA library as a template, the DNA fragment coding 2 to 2039 bp of human SGLT2 (ACCESSION: M95549, M95299), which was reported by R. G. Wells et al., was amplified by PCR method and inserted into the multi-cloning site of pcDNA3.1 (−) (Invitrogen). The DNA sequence inserted was perfectly matched to the previously reported sequence. 2) Establishment of Cell Line Stably Expressing Human SGLT2 The expression vector of human SGLT2 was digested by Sca I into a linear DNA. The linear DNA was transfected into CHO-K1 cells by means of lipofection (Effectene Transfection Reagent: QIAGEN). Neomycin resistant cell lines were selected by culture in the medium containing G418 (1 mg/mL, LIFE TECHNOLOGIES), and then the activity against the uptake of methyl-α-D-glucopyranoside was measured by the method described below. […] Radioactivity was measured by means of micro-scintillation counter TopCount (Packard). One hundred % was set to the difference between the uptake in the control group and the basal uptake, and the uptake of methyl α-D-glucopyranoside at each drug concentration were calculated. […]
structure (smiles),measurement,value
"COc1ccc(Cc2ccccc2O[C@@H]2O[C@H](CF)[C@@H](O)[C@H](O)[C@H]2O)cc1 [Example 1, 2-(4-Methoxybenzyl)phenyl 6-deoxy-6-fluoro-β-D-glucopyranoside]",IC50,86 nM
